From US12172974B2 (Biohaven Pharmaceutical Holding Company Ltd., priority 2012, dated 2024)

Assays:
Format in all cases: in vitro ADME
[1] = Stability in Simulated Intestinal Fluid (SIF); details: 37° C., 0.01 mg/mL
Description: (§1) Stability in Simulated Gastric Fluid (SGF) and Simulated Intestinal Fluid (SIF). Procedure from Baudy et. al. (J. Med. Chem. 2009, 52, 771-778) used. The physiological stability of prodrugs was determined by examining the stability of the compound in SGF, and SIF at 37° C. The compounds were prepared in a 9:1 mixture of the appropriate test component (SGF, SIF) and acetonitrile to a final concentration of 0.01 mg/mL. The samples were thoroughly mixed and maintained at 37° C. Each sample was injected consecutively onto an Agilent 1100 system (Luna C18, 3 μm, 50 mm×3 mm; 1 mL/min; mobile phase of 0.1% trifluoroacetic acid in water/0.1% trifluoroacetic acid in acetonitrile) after a 3 h period. The percent remaining of prodrug was calculated by comparing the area of prodrug compound versus riluzole generated. The identities of the parent compounds and conversion products were confirmed by LC/MS.

[2] = Plasma stability in fresh human plasma; details: 1 uM, 37° C.
Description: (§2) Plasma Stability: Assessment of plasma stability was carried out by individual incubations of drug candidates in fresh mouse or human control plasma at a concentration of 1 uM for 1 hour at 37° C. After which, the samples were de-proteinized by addition of 2 volumes of acetonitrile containing 0.1% formic acid and internal standard, vortex mixed for 2 minutes and centrifuged at 4000 rpm for 10 minutes to pellet precipitated protein. The resulting supernatant containing the drug candidates was diluted 5-fold with water containing 0.1% formic acid and submitted to LC-MS/MS analysis. All determinations were done in triplicate. […]
(§3) LC-MS/MS Analysis: An aliquot from each incubation was analyzed by LC-MS/MS with SRM detection in the positive ionization mode using an ABSciex API 5500 QTrap Mass Spectrometer interfaced via the ABSciex Turbo V IonSpray source (ESI) to an Eksigent ExpressHT LC system. […] A fast gradient, from 15 to 85% organic in 2.5 minutes, with run time of 5.0 minutes, and flow rate of 50 ul/min was utilized. Peak areas were integrated using MultiQuant v2.0 software from ABSciex.

[3] = Metabolic stability in pooled mouse liver microsomes; details: mouse liver microsomes 0.5 mg/mL, 1 uM, 37° C., NADPH
Description: (§4) Metabolic Stability: In vitro metabolic stability was determined in pooled mouse or human liver microsomes (BD Gentest) at a protein concentration of 0.5 mg/mL in reaction buffer (100 mM KH2PO4, pH 7.4 and 12 mM MgCl2). Each drug candidate was added to a final concentration of 1 uM. This mixture was pre-warmed to 37° C. for 10 minutes prior to starting the reaction with the addition of β-Nicotinamide adenine dinucleotide 2′-phosphate reduced (NADPH) to a final concentration of 1 mM. A parallel incubation lacking NADPH served as the control. After incubation for 30 min at 37° C., the reactions were quenched by the addition of acetonitrile containing 0.1% formic acid and internal standard, vortex mixed for 2 minutes and centrifuged at 4000 rpm for 10 minutes to pellet the precipitated protein. The resulting supernatant containing the drug candidate and its potential metabolites was diluted 5-fold with water containing 0.1% formic acid and submitted to LC-MS/MS analysis. […]
as §3

[4] = Plasma stability in fresh mouse plasma; details: 1 uM, 37° C.
Description: as §2, §3

[5] = Stability in Simulated Gastric Fluid (SGF); details: 37° C., 0.01 mg/mL
Description: as §1

[6] = Metabolic stability in pooled human liver microsomes; details: human liver microsomes 0.5 mg/mL, 1 uM, 37° C., NADPH
Description: as §4, §3

SIF (3 hours): percent of prodrug metabolized to riluzole [1] [%]	Plasma Stability Human (1 hour): percent of prodrug metabolized to riluzole [2] [%]	Metabolic Stability mouse (30 minutes): percent of prodrug metabolized to riluzole [3] [%]	Plasma Stability mouse (1 hour): percent of prodrug metabolized to riluzole [4] [%]	SGF (3 hours): percent of prodrug metabolized to riluzole [5] [%]	Metabolic Stability human (30 minutes): percent of prodrug metabolized to riluzole [6] [%]	Structure (SMILES)
0	25	77	99	3	34	COC(=O)CCC(=O)Nc1nc2ccc(OC(F)(F)F)cc2s1 [Cpd 21, N-(6-Trifluoromethoxy-benzothiazol-2-yl)-succinamic acid methyl ester]
0	16	70	0	0	0	O=C(O)CCC(=O)Nc1nc2ccc(OC(F)(F)F)cc2s1 [Cpd 20, N-(6-Trifluoromethoxy-benzothiazol-2-yl)-succinamic acid]
0	0	24	0	0	80	Nc1ccc(C(=O)Nc2nc3ccc(OC(F)(F)F)cc3s2)cc1 [Cpd 28, 4-Amino-N-(6-trifluoromethoxy-benzothiazol-2-yl)-benzamide]
50				0		NCC1(CC(=O)Nc2nc3ccc(OC(F)(F)F)cc3s2)CCCCC1 [Cpd 29, 2-(1-Aminomethyl-cyclohexyl)-N-(6-trifluoromethoxy-benzothiazol-2-yl)-acetamide]
0	0	71	0	0	0	CN(C)CCCOC(=O)Nc1nc2ccc(OC(F)(F)F)cc2s1 [Cpd 19, (6-Trifluoromethoxy-benzothiazol-2-yl)-carbamic acid 3-dimethylamino-propyl ester]
60				0		O=C(CCC(=O)Nc1nc2ccc(OC(F)(F)F)cc2s1)NCCN1CCOCC1 [Cpd 24, N-(2-Morpholin-4-yl-ethyl)-N′-(6-trifluoromethoxy-benzothiazol-2-yl)-succinamide]

The next lines start with the molecule.

Structure (SMILES)	SIF (3 hours): percent of prodrug metabolized to riluzole [1] [%]	Plasma Stability Human (1 hour): percent of prodrug metabolized to riluzole [2] [%]	Metabolic Stability mouse (30 minutes): percent of prodrug metabolized to riluzole [3] [%]	Plasma Stability mouse (1 hour): percent of prodrug metabolized to riluzole [4] [%]	SGF (3 hours): percent of prodrug metabolized to riluzole [5] [%]	Metabolic Stability human (30 minutes): percent of prodrug metabolized to riluzole [6] [%]
CCCCCCOC(=O)Nc1nc2ccc(OC(F)(F)F)cc2s1 [Cpd 17, (6-Trifluoromethoxy-benzothiazol-2-yl)-carbamic acid hexyl ester]					0	
CC(C)COC(=O)Nc1nc2ccc(OC(F)(F)F)cc2s1 [Cpd 16, (6-Trifluoromethoxy-benzothiazol-2-yl)-carbamic acid isobutyl ester]	0	0	23	0	5	14
CC(C)[C@H](N)C(=O)Nc1nc2ccc(OC(F)(F)F)cc2s1 [Cpd 11, (S)-2-Amino-3-methyl-N-(6-trifluoromethoxy-benzothiazol-2-yl)-butyramide]	40	11	40	45	0	6
C[C@H](N)C(=O)Nc1nc2ccc(OC(F)(F)F)cc2s1 [Cpd 7, (S)-2-Amino-N-(6-trifluoromethoxy-benzothiazol-2-yl)-propionamide]	50	10	1	28	0	0
NCC(=O)Nc1nc2ccc(OC(F)(F)F)cc2s1 [Cpd 1, 2-Amino-N-(6-trifluoromethoxy-benzothiazol-2-yl)-acetamide]		3	4	11		7
CCOC(=O)Nc1nc2ccc(OC(F)(F)F)cc2s1 [Cpd 13, (6-Trifluoromethoxy-benzothiazol-2-yl)-carbamic acid ethyl ester]	0	0	8	0	0	7
N[C@@H](Cc1ccccc1)C(=O)Nc1nc2ccc(OC(F)(F)F)cc2s1 [Cpd 9, (S)-2-Amino-3-phenyl-N-(6-trifluoromethoxy-benzothiazol-2-yl)-propionamide]		7	2	0		0
CCCOC(=O)Nc1nc2ccc(OC(F)(F)F)cc2s1 [Cpd 14, (6-Trifluoromethoxy-benzothiazol-2-yl)-carbamic acid propyl ester]	0	0	15	0	0	34
C[C@@H](N)C(=O)Nc1nc2ccc(OC(F)(F)F)cc2s1 [Cpd 2, (R)-2-Amino-N-(6-trifluoromethoxy-benzothiazol-2-yl)-propionamide]	50	15	10	36	0	4
N[C@H](COCc1ccccc1)C(=O)Nc1nc2ccc(OC(F)(F)F)cc2s1 [Cpd 5, (R)-2-Amino-3-benzyloxy-N-(6-trifluoromethoxy-benzothiazol-2-yl)-propionamide]		3	24	25		0
COC(=O)Nc1nc2ccc(OC(F)(F)F)cc2s1 [Cpd 12, (6-Trifluoromethoxy-benzothiazol-2-yl)-carbamic acid methyl ester]	0	15	10	0	0	0
